Test results reported in the NIST ThermoML archive (doi:10.1016/j.jct.2016.07.041).

Test: xn = mol fraction of the nth substance listed
Conditions: 101 kPa, Liquid; for viscosity: Capillary tube (Ostwald / Ubbelohde) method; for mass density: Vibrating tube method

NCCO [2-aminoethan-1-ol] + O
Conditions	mass density, 293.15 K [kg/m3]	mass density, 303.15 K [kg/m3]	mass density, 313.15 K [kg/m3]	mass density, 323.15 K [kg/m3]	mass density, 333.15 K [kg/m3]	viscosity, 293.15 K [mPa·s]	viscosity, 303.15 K [mPa·s]	viscosity, 313.15 K [mPa·s]	viscosity, 323.15 K [mPa·s]	viscosity, 333.15 K [mPa·s]
x1 = 0.0996	1010.9	1006.8	1002.1	996.9	991.2	2.54	1.89	1.45	1.15	0.93
x1 = 0.1991	1021.6	1016.1	1010.2	1004	997.6	5.52	3.84	2.8	2.09	1.62
x1 = 0.2986	1027.4	1021	1014.4	1007.5	1000.4	10.06	6.65	4.62	3.35	2.52
x1 = 0.3977	1029.4	1022.5	1015.4	1007.8	1000.6	15.1	9.64	6.52	4.66	3.41
x1 = 0.4967	1028.9	1021.5	1014.2	1006.6	999	19.57	12.22	8.1	5.67	4.09
x1 = 0.5958	1027	1019.4	1011.9	1004.3	996.5	22.91	14.08	9.33	6.46	4.65
x1 = 0.6946	1024.4	1016.8	1009	1001.2	993.4	24.48	15.01	9.75	6.9	4.95
x1 = 0.7932	1021.6	1013.8	1006	998.2	990.2	25	15.36	9.98	6.91	4.99
x1 = 0.8919	1018.7	1010.8	1002.9	995	987	24.58	15.16	9.94	6.89	4.99
x1 = 1	1015.5	1007.6	999.7	991.7	983.6	23.65	14.75	9.78	6.81	4.99

NCCO [2-aminoethan-1-ol] + CCCCn1cc[n+](C)c1.F[B-](F)(F)F
Conditions	mass density, 293.15 K [kg/m3]	mass density, 303.15 K [kg/m3]	mass density, 313.15 K [kg/m3]	mass density, 323.15 K [kg/m3]	mass density, 333.15 K [kg/m3]	viscosity, 293.15 K [mPa·s]	viscosity, 303.15 K [mPa·s]	viscosity, 313.15 K [mPa·s]	viscosity, 323.15 K [mPa·s]	viscosity, 333.15 K [mPa·s]
x2 = 0	1015.5	1007.6	999.7	991.7	983.6	23.65	14.75	9.78	6.81	4.99
x2 = 0.1001	1065.1	1057.3	1049.3	1041.4	1033.4	26.23	16.27	10.72	7.39	5.38
x2 = 0.2	1098.6	1090.6	1082.8	1075	1067.2	29.02	17.98	11.84	8.21	6.02
x2 = 0.2999	1123	1115.4	1107.6	1099.8	1092.1	32.91	20.36	13.45	9.29	6.82
x2 = 0.3751	1137.9	1130.3	1122.5	1114.8	1107.1	36.29	22.48	14.89	10.41	7.57
x2 = 0.5002	1157.4	1149.9	1142.3	1134.7	1127.1	43.39	26.71	17.78	12.4	9.11
x2 = 0.5997	1169.7	1162.5	1154.9	1147.4	1139.9	51.66	31.82	20.98	14.53	10.6
x2 = 0.6996	1180.2	1173	1165.4	1158.2	1150.7	61.28	37.57	24.39	17.03	12.51
x2 = 0.8	1189.4	1182.3	1174.8	1167.5	1160.3	75.78	46.5	30.43	21.12	15.41
x2 = 0.9003	1197.8	1190.6	1183.4	1176.1	1169.1	98.71	59.85	39.19	26.65	19.22
